What all share (experiment): DTP human tumour cell line panel, 48 h
Assay [1] has as its system M14.
Assay [2] relates to NCI-H522.
The subject of assay [3] is HCC 2998.
Assay [4] has as its system EKVX.
The subject of assay [5] is BT-549.
Assay [6] has as its system HOP-62.
In assay [7] the test system is SK-OV-3.
Assay [8] deals with RXF 393.
The test system of assay [9] is UACC-62.
The subject of assay [10] is PC-3.
The subject of assay [11] is HCT-15.
Assay [12] relates to MCF7.
The subject of assay [13] is SF-295.
The test system of assay [14] is Hs-578T.
The test system of assay [15] is OVCAR-5.
Assay [16] deals with MDA-MB-231.
Assay [17] concerns HL-60.
Assay [18] relates to A549.
The subject of assay [19] is SW-620.

As usually defined, the GI50 is the concentration at which growth is held to half of that of the control.

The structures appear in SMILES notation.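 These data come from cells grown in 96-well plates and exposed to compound for 48 hours at five concentrations. GI50: concentration for 50% inhibition of growth.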 Activity calls are given as the source filed them. Rule as the data show it: active = GI50 up to about 1.1 µM and inactive = higher. Some results are limits rather than exact numbers.

As for `CCO/C=N/NC(=O)CSc1nc2ccc(I)cc2c(=O)n1Cc1ccccc1`, the GI50 was 70.3 µM (inactive) in assay [1]; 3.04 µM (inactive) in [2]; 43.5 µM (inactive) in [3]; 22.9 µM (inactive) in [4]; > 100 µM (inactive) in [5]; 37.4 µM (inactive) in assay [6]. The GI50 is > 100 µM (inactive) in assay [7]; 34.6 µM (inactive) in [8]; 43.9 µM (inactive) in assay [9]; 43.9 µM (inactive) in [10]; greater than 100 µM in [11]; 33.6 µM (inactive) in [12]. Moreover, the GI50 in assay [13] is 56.4 µM (inactive); in [14], 34.6 µM (inactive); in assay [15], > 100 µM (inactive); in assay [16], 38 µM (inactive); in assay [17], > 100 µM (inactive); in [18], > 100 µM (inactive). Besides, the GI50 in assay [19] was 46.2 µM (inactive).
Regarding `O=C1NCCN1/N=C/c1c(Cl)n(-c2ccccc2)c2ccccc12`, the GI50 was 17.5 µM (inactive) in assay [1]; 16.1 µM (inactive) in assay [2]; 17.8 µM (inactive) in assay [3]; 25.5 µM (inactive) in assay [4]; 15.4 µM (inactive) in assay [5]; 94.4 µM (inactive) in [6]. In addition, the GI50 was 46.2 µM (inactive) in assay [7]; > 10 µM (inactive) in [8]; 16 µM (inactive) in assay [9]; 29 µM (inactive) in [10]; 17.6 µM in assay [11]; 22.1 µM (inactive) in assay [12]. Further, the GI50 in assay [13] was 29.4 µM (inactive); in [14], 13.4 µM (inactive); in assay [15], 44.1 µM (inactive); in assay [16] it was 13.6 µM (inactive); in assay [17], 27.4 µM (inactive); in assay [18] it was 23.9 µM (inactive). Further, the GI50 in assay [19] is 21.1 µM (inactive).
Take `CN(C(=O)c1ccncc1)c1ccccc1`: the GI50 in assay [1], in assay [2], in assay [3], in [4], in assay [5] and in assay [6] was > 100 µM (inactive) each time. In addition, the GI50 in assay [7] is > 100 µM (inactive); in [8], > 100 µM (inactive); in [9] it was > 100 µM (inactive); in [10] it was > 100 µM (inactive); in assay [11] it was greater than 100 µM; in [12] it was > 100 µM (inactive). In addition, the GI50 in assay [13], in assay [14], in [15], in [16], in [17] and in assay [18] was > 100 µM (inactive) each time. In addition, in assay [19], the GI50 was > 100 µM (inactive).
Consider `CNC(=O)OCc1c(COC(=O)NC)c(-c2ccc(-c3ccccc3)cc2)n(C)c1C`, for which the GI50 in assay [1] was 1.47 µM (inactive); in assay [2], 1.58 µM (inactive); in assay [3] it was 2.82 µM (inactive); in assay [4], 2.44 µM (inactive); in [5], 1.21 µM (inactive); in assay [6], 2.79 µM (inactive). Also, the GI50 was 2.88 µM (inactive) in [7]; 0.512 µM (active) in assay [8]; 1.64 µM (inactive) in assay [9]; 2.52 µM (inactive) in [10]; 2.17 µM in assay [11]; 2.75 µM (inactive) in assay [12]. Further, the GI50 in [13] is 1.43 µM (inactive); in [14], 11 µM (inactive); in [15] it was 2.35 µM (inactive); in assay [16], 2.69 µM (inactive); in [17], 0.351 µM (active); in [18], 1.9 µM (inactive). Moreover, in assay [19], the GI50 was 5.48 µM (inactive).
Regarding `C=C(Cl)C(Cl)(CBr)CCCC(C)C` (stereo not given), the GI50 is > 100 µM (inactive) in assay [1]; > 100 µM (inactive) in assay [2]; 19.6 µM (inactive) in assay [3]; 18.3 µM (inactive) in assay [4]; > 85.9 µM (inactive) in [5]; 13.7 µM (inactive) in assay [6]. Also, the GI50 is > 100 µM (inactive) in assay [7]; 7.69 µM (inactive) in assay [8]; > 63.5 µM (inactive) in assay [9]; 13.2 µM (inactive) in assay [10]; greater than 49.3 µM in assay [11]; 12.4 µM (inactive) in assay [12]. The GI50 was 15.8 µM (inactive) in assay [13]; 7.19 µM (inactive) in assay [14]; 19.9 µM (inactive) in assay [15]; 20.7 µM (inactive) in assay [16]; 12.1 µM (inactive) in assay [17]; 21.4 µM (inactive) in assay [18]. The GI50 in assay [19] was 40.1 µM (inactive).

Source of the values: ChEMBL document CHEMBL1201862, “PubChem BioAssay data set” (2004).
